Source: article PMC9520911, “New quinoline-based triazole hybrid analogs as effective inhibitors of α-amylase and α-glucosidase: Preparation, in vitro evaluation, and molecular docking along with in silico studies” (Frontiers in Chemistry, 2022)

How the values were obtained:
[1] = molecular target: T1, Porcine pancreatic α-amylase (Sus scrofa, UniProt P00690); assay: α-amylase inhibition assay (starch / dinitrosalicylic acid); assay type: biochemical; conditions: for IC50: in vitro, mean ± SEM
T1 sequence (P00690 16-511): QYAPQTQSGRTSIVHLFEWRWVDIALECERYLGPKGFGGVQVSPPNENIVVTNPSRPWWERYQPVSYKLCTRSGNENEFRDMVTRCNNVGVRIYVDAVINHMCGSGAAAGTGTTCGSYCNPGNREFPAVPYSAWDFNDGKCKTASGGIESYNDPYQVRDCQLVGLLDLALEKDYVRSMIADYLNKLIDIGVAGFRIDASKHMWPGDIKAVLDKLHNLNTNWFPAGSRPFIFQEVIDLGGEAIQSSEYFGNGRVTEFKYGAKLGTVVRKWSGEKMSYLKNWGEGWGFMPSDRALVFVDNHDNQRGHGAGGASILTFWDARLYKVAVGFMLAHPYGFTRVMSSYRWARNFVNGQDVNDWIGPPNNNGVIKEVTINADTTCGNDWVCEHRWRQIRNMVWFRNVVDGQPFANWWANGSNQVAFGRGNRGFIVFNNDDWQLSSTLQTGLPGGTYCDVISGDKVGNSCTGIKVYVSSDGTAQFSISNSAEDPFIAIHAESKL
Description: After preincubation, 40 μL of a 1% starch solution in 0.02 M sodium phosphate buffer (pH 6.9 with 0.006 M sodium chloride) was added to each tube at 5 s intervals. […] The reaction was stopped with 100 μL of dinitro salicylic acid color reagent. The test tubes were then incubated in a boiling water bath for 5 min and cooled to room temperature. The reaction mixture was then diluted after adding 900 μL distilled water and the absorbance was measured at 540 nm.
Ac = the absorbance of the control
As = the absorbance of the sample

| Structure (SMILES) | melting point | IC50 [1] [µM] | enhanced potency than standard acarbose drug (α-amylase) ([1]; relative to acarbose) | more potency than scaffold 7d (α-amylase) ([1]; relative to 7d) [folds] |
| --- | --- | --- | --- | --- |
| S=c1[nH]nc(-c2ccc3cccnc3c2)n1-c1ccccc1 [1d, 4-Phenyl-5-(quinolin-7-yl)-2,4-dihydro-3H-1,2,4-triazole-3-thione] | 137 to 138 °C (dec.) | 40.2 ± 0.7 | – | – |
| Cc1ccccc1-n1c(-c2ccc3cccnc3c2)n[nH]c1=S [2d, 5-(Quinolin-7-yl)-4-(o-tolyl)-2,4-dihydro-3H-1,2,4-triazole-3-thione] | 139 to 140 °C | 22.6 ± 0.6 | – | – |
| Cc1cccc(-n2c(-c3ccc4cccnc4c3)n[nH]c2=S)c1 [3d, 5-(Quinolin-7-yl)-4-(m-tolyl)-2,4-dihydro-3H-1,2,4-triazole-3-thione] | 136 to 137 °C | 32.3 ± 0.6 | – | – |
| Cc1ccc(-n2c(-c3ccc4cccnc4c3)n[nH]c2=S)cc1 [4d, 5-(Quinolin-7-yl)-4-(p-tolyl)-2,4-dihydro-3H-1,2,4-triazole-3-thione] | 127 to 128 °C | 21.6 ± 0.4 | – | – |
| O=[N+]([O-])c1ccccc1-n1c(-c2ccc3cccnc3c2)n[nH]c1=S [5d, 4-(2-Nitrophenyl)-5-(quinolin-7-yl)-2,4-dihydro-3H-1,2,4-triazole-3-thione] | 139 to 140 °C | 5.3 ± 0.2 | – | – |
| O=[N+]([O-])c1cccc(-n2c(-c3ccc4cccnc4c3)n[nH]c2=S)c1 [6d, 4-(3-Nitrophenyl)-5-(quinolin-7-yl)-2,4-dihydro-3H-1,2,4-triazole-3-thione] | 130 to 131 °C | 21.4 ± 0.3 | – | – |
| O=[N+]([O-])c1ccc(-n2c(-c3ccc4cccnc4c3)n[nH]c2=S)cc1 [7d, 4-(4-Nitrophenyl)-5-(quinolin-7-yl)-2,4-dihydro-3H-1,2,4-triazole-3-thione] | 127 to 128 °C | 11.6 ± 0.2 | – | – |
| COc1ccc(-n2c(-c3ccc4cccnc4c3)n[nH]c2=S)cc1 [8d, 4-(4-Methoxyphenyl)-5-(quinolin-7-yl)-2,4-dihydro-3H-1,2,4-triazole-3-thione] | 134 to 135 °C | – | – | – |
| Fc1ccccc1-n1c(-c2ccc3cccnc3c2)n[nH]c1=S [9d, 4-(2-Fluorophenyl)-5-(quinolin-7-yl)-2,4-dihydro-3H-1,2,4-triazole-3-thione] | 129 to 130 °C | 1.5 ± 0.1 | – | – |
| Fc1cccc(-n2c(-c3ccc4cccnc4c3)n[nH]c2=S)c1 [10d, 4-(3-Fluorophenyl)-5-(quinolin-7-yl)-2,4-dihydro-3H-1,2,4-triazole-3-thione] | 128 to 129 °C | 2.1 ± 0.1 | – | – |

Results, then the molecule that gave them:

| melting point | IC50 [1] [µM] | enhanced potency than standard acarbose drug (α-amylase) ([1]; relative to acarbose) | more potency than scaffold 7d (α-amylase) ([1]; relative to 7d) [folds] | Structure (SMILES) |
| --- | --- | --- | --- | --- |
| 131 to 132 °C | 0.8 ± 0.05 | ten-fold | – | Fc1ccc(-n2c(-c3ccc4cccnc4c3)n[nH]c2=S)cc1 [11d, 4-(4-Fluorophenyl)-5-(quinolin-7-yl)-2,4-dihydro-3H-1,2,4-triazole-3-thione] |
| 136 to 137 °C | 4.3 ± 0.1 | – | – | S=c1[nH]nc(-c2ccc3cccnc3c2)n1-c1ccccc1Cl [12d, 4-(2-Chlorophenyl)-5-(quinolin-7-yl)-2,4-dihydro-3H-1,2,4-triazole-3-thione] |
| 141 to 142 °C | 14.6 ± 0.3 | – | – | S=c1[nH]nc(-c2ccc3cccnc3c2)n1-c1cccc(Cl)c1 [13d, 4-(3-Chlorophenyl)-5-(quinolin-7-yl)-2,4-dihydro-3H-1,2,4-triazole-3-thione] |
| 131 to 132 °C | 6.4 ± 0.3 | – | 2 | S=c1[nH]nc(-c2ccc3cccnc3c2)n1-c1ccc(Cl)cc1 [14d, 4-(4-Chlorophenyl)-5-(quinolin-7-yl)-2,4-dihydro-3H-1,2,4-triazole-3-thione] |
| 135 to 136 °C | 17.2 ± 0.3 | – | – | S=c1[nH]nc(-c2ccc3cccnc3c2)n1-c1ccccc1Br [15d, 4-(2-Bromophenyl)-5-(quinolin-7-yl)-2,4-dihydro-3H-1,2,4-triazole-3-thione] |
| 130 to 131 °C | 31.8 ± 0.6 | – | – | S=c1[nH]nc(-c2ccc3cccnc3c2)n1-c1cccc(Br)c1 [16d, 4-(3-Bromophenyl)-5-(quinolin-7-yl)-2,4-dihydro-3H-1,2,4-triazole-3-thione] |
| 132 to 133 °C | 19.2 ± 0.3 | – | – | S=c1[nH]nc(-c2ccc3cccnc3c2)n1-c1ccc(Br)cc1 [17d, 4-(4-Bromophenyl)-5-(quinolin-7-yl)-2,4-dihydro-3H-1,2,4-triazole-3-thione] |
| 133 to 134 °C | 1.8 ± 0.1 | – | – | S=c1[nH]nc(-c2ccc3cccnc3c2)n1-c1ccc(Cl)c(Cl)c1 [18d, 4-(3,4-Dichlorophenyl)-5-(quinolin-7-yl)-2,4-dihydro-3H-1,2,4-triazole-3-thione] |
| – | 18.5 ± 0.3 | – | – | S=c1[nH]nc(-c2ccc3cccnc3c2)n1-c1ccc(-c2ccccc2)cc1 [19d] |
